Results: patent US20240409475A1, “INTERMEDIATE-RELEASE FERTILIZERS AND METHODS FOR MAKING SAME” (OSTARA NUTRIENT RECOVERY TECHNOLOGES INC., priority 2021, published 2024)

Test system: canola
Assay: canola germination as a function of phosphate application rate
Format: in vivo
Settings: media containing increasing concentrations of phosphate application
From the text: FIG. 8 is a graph showing germination rate for canola as a function of phosphate applicant rate for various sources of phosphorus listed in Table 2.

Structure (SMILES): N.N.O=P(O)(O)O [DAP, Di-Ammonium Phosphate]
- germination of canola seedlings: inhibited at even the lowest application rate

Structure (SMILES): N.O=P(O)(O)O [MAP, Mono-Ammonium Phosphate]
- germination of canola seedlings: inhibited at even the lowest application rate
